Measured values published in patent US20060167276A1, “Clausenamide c5-hydroxyl derivatives and n-substituted derivatives, processes for their preparation, its composition and use” (priority 2002, published 2006).

What was measured:
[1] = system: C17-2 mouse brain neural stem cells; experiment: Cell proliferation of mouse brain neural stem cells (MTT, OD 490 nm); assay type: cell-based; settings: for Cell proliferation %: control group = 100%; for promotion effects on cell proliferation of mouse brain neural stem cells: at doses of 0.1 μM and 1 μM
Description: C17-2 mouse brain neural stem cells (C17-2 cells) were continuously cultured in 1640 medium with 10% horse serum and 10% fetal bovine serum at 5% CO2 and 37° C., dissociated to single cell suspension by 0.1% trypsin solution, centrifuged at 1,000 rpm×5 min and rinsed with medium. The cells were seeded in a 96-well plate, 1×10^3 cells per well, 3 well per group, continuously cultured. After 24 hours, the test compounds were added, doses of each of the C5-hydroxyl substituted clausenamides and N-substituted clausenamide derivatives were 0.1 μM, 1 μM and 10 μM respectively. The growth situation of the cells was observed under a microscope, once daily. At the 4th day, media in each well were pipetted, phosphate buffer solution containing MTT was added. 4 Hours later, the fluid was discarded, and a DMSO solution was added. The cells were incubated at 37° C. for 10 min under shaken. OD values on 490 nm of each well were detected. Set the growth rate of the control group as 100%, and the growth rates of each dose were given by comparison with the control group and t-tested.

[2] = system: rat hippocampus; experiment: LTP / synaptic transmission in rat hippocampus (population spike amplitude, dentate gyrus); assay type: in vivo; settings: for Relative PS (PSA %): lateral ventricle, prior administration = 100; for effects on synaptic transmission: P<0.05 vs. control, n=5
Text: Male adult SD Rats (5 per group) were anesthetized with 20% (w/v) urethane carbamate (1.0 g·kg^−1, ip) and fixed in a stereotaxic head holder. According to the reference of Pellegrino stereotaxic spectrum of rat, recording electrodes (stainless steel needle of 0.2 mm diameter were insulted except for 0.2 mm tip) were placed in the dentate gyrus granule cell layer. The stimulating electrodes (two stainless steel needles of 0.15 mm diameter coated with Teflon except for the 0.2 mm tip, and the distance between two needles was 0.5 mm) were planted between the fibre of perforant path (PP) in rat. Continuous pulse was provided by electronic stimulator, and delivered to PP through stimulus isolator and stimulating electrodes. Electrode depth was then adjusted until a typical excitatory postsynaptic potential (EPSP) was observed. Electric current was magnified by amplifier and collected by computer, then processed by DataWave software. The stimulus intensity was adjusted to produce population spike (PS) with a slope that was ≈50% of the maximum. Single-pulse test stimuli were at an interval of 30 sec during the experiment. Population spike amplitude (PSA) was recorded and the relatively percent of PSA was calculated according to the formula (PSA/basic value).

[3] = dose 10^−5 M, MTT at 4th day, OD 490 nm
[4] = dose 10^−6 M, MTT at 4th day, OD 490 nm
[5] = dose 10^−7 M, MTT at 4th day, OD 490 nm

Molecule | Result (OD value) [1, 3] | Cell proliferation % ([1]; dose 10^−5 M) [%] | Result (OD value) [1, 4] | Cell proliferation % ([1]; dose 10^−6 M) [%] | Result (OD value) [1, 5] | Cell proliferation % ([1]; dose 10^−7 M) [%] | Relative PS (PSA %) ([2]; 15 min after administration) [%] | Relative PS (PSA %) ([2]; 30 min after administration) [%] | Relative PS (PSA %) ([2]; 45 min after administration) [%] | Relative PS (PSA %) ([2]; 60 min after administration) [%] | effects on synaptic transmission [2] | effects on cell proliferation of mouse brain neural stem cells (conclusion) [1] | promotion effects on cell proliferation of mouse brain neural stem cells [1] | Result (OD value) ([1]; positive control, dose 5 mg/L) | Cell proliferation % ([1]; positive control, dose 5 mg/L) [%]
NC(=O)CN1C(=O)C(O)C(c2ccccc2)C1C(O)c1ccccc1 (racemic) [(±)III1, N-(aminocarbonyl-methylene)-norclausenamide] | 0.104 ± 0.009 | 75.91 | 0.205 ± 0.006 | 149.64 | 0.240 ± 0.017 | 175.18 | 85.24 ± 17.41 | 79.82 ± 22.33 | 96.00 ± 19.78 | 117.37 ± 13.49 |  |  |  |  | 
O=C(O)CN1C(=O)C(O)C(c2ccccc2)C1C(O)c1ccccc1 (racemic) [(±)III2] | 0.100 ± 0.018 | 72.99 | 0.175 ± 0.006 | 127.74 | 0.218 ± 0.012 | 159.12 | 99.41 ± 9.27 | 117.34 ± 14.74 | 140.2 ± 10.96 | 153.36 ± 13.23 |  |  |  |  | 
CC(=O)OCN1C(=O)C(O)C(c2ccccc2)C1C(O)c1ccccc1 (racemic) [(±)III3, N-acetoxymethylene-norclausenamide] |  |  |  |  |  |  |  |  |  |  | significantly upstanding effects |  |  |  | 
Cc1cccc(C)c1NC(=O)CN1C(=O)C(O)C(c2ccccc2)C1C(O)c1ccccc1 (racemic) [(±)III5] | 0.171 ± 0.035 | 124.82 | 0.227 ± 0.011 | 165.69 | 0.304 ± 0.051 | 221.90 | 87.51 ± 19.57 | 97.43 ± 32.15 | 111.47 ± 46.02 | 137.15 ± 57.17 |  | significant effects | significant promotion effects |  | 
O=C1C(O)C(c2ccccc2)C(C(O)c2ccccc2)N1Cc1ccccc1 (racemic) [(±)III8] | 0.096 ± 0.022 | 70.07 | 0.144 ± 0.038 | 105.11 | 0.221 ± 0.043 | 161.31 | 67.75 ± 26.84 | 68.48 ± 21.15 | 79.25 ± 16.62 | 98.97 ± 14.26 |  |  |  |  | 
COc1ccc(CN2C(=O)C(O)C(c3ccccc3)C2C(O)c2ccccc2)cc1 (racemic) [(±)III9] | 0.120 ± 0.027 | 87.59 | 0.138 ± 0.012 | 100.73 | 0.212 ± 0.011 | 154.74 | 115.6 ± 17.94 | 107.18 ± 20.09 | 103.77 ± 15.36 | 112.72 ± 8.95 |  |  |  |  | 
CN1C(=O)C(O)C(c2ccccc2)C1=Cc1ccccc1 (single isomer, unassigned) [(−)Δ^5,6-I, (−)-Δ^5,6-clausenamide] | 0.076 ± 0.016 | 55.47 | 0.165 ± 0.011 | 120.44 | 0.246 ± 0.005 | 179.56 | 123.37 ± 14.80 | 138.79 ± 10.94 | 158.89 ± 23.04 | 181.50 ± 35.88 | significantly upstanding effects |  |  |  | 
CC(=O)OCN1C(=O)C(O)C(c2ccccc2)C1C(O)c1ccccc1 (single isomer, unassigned; (-)) [(−)III3, N-acetoxymethylene-norclausenamide] | 0.061 ± 0.007 | 44.53 | 0.147 ± 0.021 | 107.30 | 0.217 ± 0.024 | 158.39 | 90.33 ± 16.11 | 100.15 ± 7.48 | 118.33 ± 25.07 | 141.37 ± 30.83 |  |  |  |  | 
CN1C(=O)[C@@H](O)[C@H](c2ccccc2)[C@]1(O)[C@H](O)c1ccccc1 [(+)II1, (+)-(3S,4S,5S,6R)-5-hydroxy-clausenamide] | 0.093 ± 0.007 | 67.88 | 0.264 ± 0.036 | 192.70 | 0.250 ± 0.016 | 182.48 | 144.86 ± 49.53 | 168.02 ± 49.16 | 194.32 ± 56.65 | 233.24 ± 55.62 | significantly upstanding effects |  |  |  | 
CN1C(=O)[C@@H](O)[C@H](c2ccccc2)[C@@]1(O)[C@@H](O)c1ccccc1 [(+)II2, (+)-(3S,4S,5R,6S)-5-hydroxy-clausenamide] | 0.076 ± 0.008 | 55.47 | 0.220 ± 0.023 | 160.58 | 0.175 ± 0.059 | 127.74 | 81.48 ± 6.13 | 77.33 ± 8.93 | 82.56 ± 1.87 | 99.92 ± 6.26 |  |  |  |  | 
CN1C(=O)[C@H](O)[C@@H](c2ccccc2)[C@@]1(O)[C@H](O)c1ccccc1 [(+)II3, (+)-(3R,4R,5R,6R)-5-hydroxy-clausenamide] | 0.131 ± 0.009 | 95.62 | 0.199 ± 0.024 | 145.26 | 0.253 ± 0.020 | 184.67 | 91.74 ± 17.21 | 117.87 ± 14.93 | 161.14 ± 13.94 | 188.03 ± 5.28 | significantly upstanding effects | significant effects | significant promotion effects |  | 
CC(=O)O[C@@H]1C(=O)N(C)[C@@](O)([C@H](O)c2ccccc2)[C@H]1c1ccccc1 [(−)-3-O-AC-II1, (−)-(3S,4S,5S,6R)-3-O-acetyl-5-hydroxy-clausenamide] | 0.063 ± 0.014 | 45.99 | 0.072 ± 0.006 | 52.55 | 0.179 ± 0.004 | 130.66 | 78.91 ± 13.90 | 83.73 ± 13.59 | 94.60 ± 8.87 | 102.66 ± 2.88 |  |  |  |  | 
CN1C(=O)[C@H](O)[C@@H](c2ccccc2)[C@@]1(O)[C@@H](O)c1ccccc1 [(−)II1, (−)-(3R,4R,5R,6S)-5-hydroxy-clausenamide] | 0.126 ± 0.016 | 91.97 | 0.236 ± 0.049 | 172.26 | 0.256 ± 0.020 | 186.86 |  |  |  |  |  | significant effects | significant promotion effects |  | 
CN1C(=O)[C@H](O)[C@@H](c2ccccc2)[C@]1(O)[C@H](O)c1ccccc1 [(−)II2, (−)-(3R,4R,5S,6R)-5-hydroxy-clausenamide] | 0.156 ± 0.095 | 113.87 | 0.163 ± 0.038 | 118.98 | 0.233 ± 0.033 | 170.07 | 110.55 ± 7.27 | 103.09 ± 10.12 | 94.49 ± 10.53 | 88.40 ± 14.42 |  |  |  |  | 
fibroblast growth factor [FGF, reference compound] |  |  |  |  |  |  |  |  |  |  |  |  |  | 0.340 ± 0.035 | 248.17
